Measurements as given in publication PMC12520178, “Turn-engineering tunes the conformational rigidity of β-hairpin AMPs in achieving membrane selectivity and killing drug-resistant ESKAPE pathogens” (Chemical Science, 2025).
≈ marks a conversion by molar mass, not a printed value. Read-outs that look alike come from different tables or passages of the source. Where a SMILES comes first, the peptide text is derived from it. Bridges are numbered along the chain shown (N, C = ends). [ ]: non-standard residue; d: D form. NMeR = CN[C@@H](CCCNC(=N)N)C(=O)O; dNMeR = CN[C@H](CCCNC(=N)N)C(=O)O

How the values were obtained:
[1] = system: human red blood cells; assay: Hemolysis assay against human red blood cells; settings: ≥10% hemolysis against human RBCs; 4% (v/v) hRBCs in PBS, 1.5 h at 37 °C, 405 nm; n = 3
[2] = system: Escherichia coli; format: cell-based
[3] = system: Acinetobacter baumannii; format: cell-based
[4] = system: human red blood cells; settings: cited from earlier work
Description: These motifs were chosen based on their ability to induce 81% (-D-Ala-NMeArg–) and 92% (-D-Val-NMeArg-) β-hairpin folded fractions within a 12-mer linear peptide in aqueous solution.[24]

[5] = system: Pseudomonas aeruginosa; format: cell-based
[6] = system: Staphylococcus aureus; assay: microbe, parasite or virus in culture; format: cell-based
[7] = system: Klebsiella pneumoniae; format: cell-based
[8] = Rapid equilibrium dialysis (RED) plasma protein binding; settings: plasma spiked with 100 μM peptide, buffer pH 7.4, 37 °C, 4 h, HPLC
[9] = system: polymyxin B-resistant A. baumannii; settings: induced polymyxin B-resistant A. baumannii
[10] = Acute in-vivo toxicity assessment; settings: mice
[11] = system: human peripheral blood mononuclear cells (PBMCs); settings: 24 h, 40
[12] = molecular target: Proteinase K (Parengyodontium album, UniProt P06873); assay: Proteolytic digestion with Proteinase K; format: in vitro ADME; settings: 100 µM peptide, 1X TBS pH 7.5, ratio 1:200, 37 °C, HPLC, 0 to 720 min
Chain of Proteinase K (P06873 106-384): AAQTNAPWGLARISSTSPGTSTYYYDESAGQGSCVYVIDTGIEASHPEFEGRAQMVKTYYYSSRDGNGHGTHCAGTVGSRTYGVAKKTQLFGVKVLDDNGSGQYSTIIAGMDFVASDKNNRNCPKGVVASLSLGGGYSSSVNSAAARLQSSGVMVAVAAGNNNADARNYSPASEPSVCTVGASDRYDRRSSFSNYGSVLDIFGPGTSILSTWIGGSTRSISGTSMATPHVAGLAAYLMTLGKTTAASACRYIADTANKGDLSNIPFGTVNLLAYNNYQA
Method: Figure S15: Proteolytic degradation profiles of a. 4d and b. 4f after incubation with Proteinase K. The five overlaid chromatograms represent […] different time-points: 0 min, 2 min, 60 min, 480 min and 720 min. The identity of the peptide at different time points were monitored using MALDI-TO F.
Figure S16: a. PI uptake by A. baumannii and S. aureus, when treated with different concentrations of 4f for 10 min, monitored using flow-cytometry. b. SEM images of untreated control cells and 5 times of […]
Radial Distribution Function
The radial distribution function (g(r)) was computed to investigate the local density of specific lipid headgroups around key peptide residues. […]
The interaction energy between the peptide and membrane components was computed to quantify the binding affinity and identify the driving forces for the interaction. Using GROMACS, the production trajectories were re-analyzed by defining energy groups for the protein and different membrane components. […]
The metabolic stability of peptides (1,1d,1f and 3,3d,3f) were evaluated against two proteases-chymotrypsin and trypsin at a concentration of 100 µM. The metabolic stability of 4f was evaluated by incubating 100 µM of peptide with a more promiscuous enzyme i.e. Proteinase K. Peptides were incubated with different enzyme to peptide ratio for different time intervals at 37 ° C. […]

[13] = system: polymyxin B-resistant P. aeruginosa; settings: induced polymyxin B-resistant P. aeruginosa
[14] = system: human red blood cells; settings: red cells of human
[15] = against E. coli, microbroth dilution, 5x10^5 cfu/mL, 20-24 h at 37 °C, turbidity 600 nm, n = 5, median

| SMILES | MHC10 (μM), minimum hemolytic concentration [1] [µM] | MIC90 [2, 15] [µM] | MIC90 [2] [µM] | MIC (μM) ec [2] [µM] | MIC (μM) ab [3] [µM] | hemolysis (toxicity) [4] | MIC (μM) pa [5] [µM] | MIC (μM) sa [6] [µM] | MIC (μM) kp [7] [µM] | plasma protein binding [8] | MIC [9] [µM] | signs of acute toxicity ([10]; 10 mg kg^−1, intraperitoneally, monitored till 72 h) | signs of acute toxicity ([10]; 20 mg kg^−1, intraperitoneally, at 48 h, transient) | signs of acute toxicity ([10]; 40 mg kg^−1, intraperitoneally) | mortality ([10]; 10, 20 and 40 mg kg^−1, intraperitoneally) | median viability of PBMCs [11] [%] | protection against proteolysis [12] | MIC [13] [µM] | MHC10 (μM), minimum hemolytic concentration [14] [µM] |
| --- | --- | --- | --- | --- | --- | --- | --- | --- | --- | --- | --- | --- | --- | --- | --- | --- | --- | --- | --- |
| CC[C@H](C)[C@@H]1NC(=O)[C@H](CCCNC(=N)N)N(C)C(=O)[C@@H](C(C)C)NC(=O)[C@H](Cc2ccc(O)cc2)NC(=O)[C@@H]2CSSC[C@H](NC1=O)C(=O)N[C@@H](Cc1ccc(O)cc1)C(=O)N[C@@H](CCCNC(=N)N)C(=O)N[C@@H](CCCNC(=N)N)C(=O)N[C@H](C(=O)N[C@@H](CCCNC(=N)N)C(N)=O)CSSC[C@H](NC(=O)[C@H](Cc1c[nH]c3ccccc13)NC(=O)[C@@H](N)CCCCN)C(=O)N[C@@H](Cc1ccccc1)C(=O)N[C@@H](CCCNC(=N)N)C(=O)N[C@@H](C(C)C)C(=O)N2 [4b] (H-KWCFRVCY[dV][NMeR]ICYRRCR-NH2; disulfide 3-16, 7-12) | 12.5 | 0.2 (≈ 0.464 µg/mL) |  |  |  |  |  |  |  |  |  |  |  |  |  |  |  |  |  |
| CC(C)[C@@H]1NC(=O)CNC(=O)[C@H](CCCNC(=N)N)NC(=O)[C@H](C(C)C)NC(=O)[C@H](CCCNC(=N)N)NC(=O)[C@H](C)NC(=O)[C@H](Cc2ccc(O)cc2)NC(=O)[C@H](C(C)C)NC(=O)[C@@H](NC(=O)[C@H](Cc2c[nH]c3ccccc23)NC(=O)[C@@H](N)CCCNC(=N)N)CSSC[C@@H](C(=O)N[C@@H](Cc2c[nH]c3ccccc23)C(=O)O)NC(=O)[C@H](CCCNC(=N)N)NC(=O)[C@H](CCCNC(=N)N)NC(=O)[C@H](Cc2ccc(O)cc2)NC(=O)[C@H](CCCNC(=N)N)NC1=O [compound 1, reference compound] (H-RWCVYARVRGVRYRRCW-OH; disulfide 3-16) |  |  | 1.2 (≈ 2.74 µg/mL) | 1.2 (≈ 2.74 µg/mL) | 0.8 (≈ 1.83 µg/mL) | no measurable hemolysis | 3.12 (≈ 7.13 µg/mL) | 1.6 (≈ 3.65 µg/mL) | 0.8 (≈ 1.83 µg/mL) |  |  |  |  |  |  |  |  |  |  |
| CC[C@@H](C)[C@@H](NC(=O)[C@@H](CCCNC(=N)N)N(C)C(=O)[C@H](C)NC(=O)[C@@H](Cc1ccc(O)cc1)NC(=O)[C@H](NC(=O)[C@H](NC(=O)[C@@H](CCCNC(=N)N)NC(=O)[C@@H](Cc1ccccc1)NC(=O)[C@H](NC(=O)[C@@H](Cc1c[nH]c2ccccc12)NC(=O)[C@H](N)CCCCN)[C@H](C)O)C(C)C)[C@H](C)O)C(=O)N[C@@H](C(=O)N[C@H](Cc1ccc(O)cc1)C(=O)N[C@H](CCCNC(=N)N)C(=O)N[C@H](CCCNC(=N)N)C(=O)N[C@@H](C(=O)N[C@H](CCCNC(=N)N)C(N)=O)[C@H](C)O)[C@H](C)O [4f] (H-[dK][dW][dT][dF][dR][dV][dT][dY]A[dNMeR][dI][dT][dY][dR][dR][dT][dR]-NH2) |  |  | 0.4 (≈ 0.915 µg/mL) | 0.4 (≈ 0.915 µg/mL) | 1.6 (≈ 3.66 µg/mL) |  | 1.2 (≈ 2.75 µg/mL) | 0.8 (≈ 1.83 µg/mL) | 1.6 (≈ 3.66 µg/mL) | very high plasma protein binding | 1.6 (≈ 3.66 µg/mL) | no signs of toxicity | mild symptoms such as wrinkled skin and loss in body weight | Visible signs of toxicity such as wrinkled skin, poor motility, and loss in body weight | none of the doses led to mortality | ~85 | total protection against proteolysis | 2.4 (≈ 5.49 µg/mL) | 50 |
| CC(C)[C@@H]1NC(=O)[C@H](CCCNC(=N)N)NC(=O)[C@H](Cc2ccccc2)NC(=O)[C@@H](NC(=O)[C@H](Cc2c[nH]c3ccccc23)NC(=O)[C@H](CCCNC(=N)N)NC(=O)[C@@H](N)CCCNC(=N)N)CSSC[C@@H](C(=O)N[C@@H](CCCNC(=N)N)C(N)=O)NC(=O)[C@H](CCCCN)NC(=O)[C@H](CCCNC(=N)N)NC(=O)[C@H](Cc2ccc(O)cc2)NC(=O)[C@@H]2CSSC[C@H](NC1=O)C(=O)N[C@@H](Cc1ccc(O)cc1)C(=O)N[C@H](C(C)C)C(=O)N(C)[C@@H](CCCNC(=N)N)C(=O)N[C@@H](Cc1ccccc1)C(=O)N2 [3b] (H-RRWCFRVCY[dV][NMeR]FCYRKCR-NH2; disulfide 4-17, 8-13) | 6.25 | 0.9 (≈ 2.26 µg/mL) |  |  |  |  |  |  |  |  |  |  |  |  |  |  |  |  |  |
